Data as given in patent US20250248979A1, “NOVEL GPX4 INHIBITORS AND USES THEREOF” (THE TRUSTEES OF COLUMBIA UNIVERSITY IN THE CITY OF NEW YORK, priority 2022, published 2025).
Like-named read-outs stand apart in the source and are kept apart here.

Test system: HT-1080 cells
Assay: Cellular dose response assay, HT-1080 with and without Fer-1
Assay type: cell-based, human
Settings: for Selectivity: ferroptosis selectivity, IC50 with Fer-1 / IC50; for IC50: Table 10
Text: HT-1080 (human [Homo sapiens] […] fibrosarcoma), A-673 (human [Homo sapiens] […] Ewing's sarcoma), and SK-HEP-1 (human [Homo sapiens] […] hepatic adenocarcinoma), cells were obtained from ATCC. Huh7 (human [Homo sapiens] […] hepatocellular carcinoma), HLF (human [Homo sapiens] […] hepatocellular carcinoma), HepG2 (human [Homo sapiens] […] hepatocellular carcinoma), cells were obtained from the Cancer Cell Bank at Columbia University Irving Medical Center. HT-1080, A-673, Huh-7, and HLF cells were grown in Dulbecco's Modified Eagle Medium (DMEM) supplemented with 10% heat inactivated fetal bovine serum (HI-FBS), 1% non-essential amino acids, and 1% penicillin streptomycin. HepG2 and SK-HEP-1 cells were grown in Eagle's Minimum Essential Medium (EMEM) supplemented with 10% HI-FBS, and 1% penicillin-streptomycin. All cells were cultured at 37° C. and 5% CO2.
HT-1080, HepG2, Huh7, HLF, and SK-HEP-1 cells were seeded into opaque white 384-well plates at 1500 cells per well then incubated at 37° C. with 5% CO2 overnight. The next day, compounds of interest were dissolved in DMSO and 12-point 2-fold dilution series were prepared with and without Fer-1. Cells were treated in triplicate (final DMSO concentration of 0.4% in all wells, including DMSO-only control wells) and incubated for a further 48 hours at 37° C. and 5% CO2. Cell viability was evaluated using CellTiter-Glo (Promega G7573) and luminescence was recorded on a Victor 5 plate reader. Data were analyzed in GraphPad Prism 9 and error bars represent standard deviation values for three technical replicates in a representative experiment.

[1] = with Fer-1, read-out: IC50 (μM) HT1080 + Fer-1
[2] = without Fer-1, read-out: IC50 (μM) HT1080

SMILES	Selectivity	IC50 [1]	IC50 [2]	ferroptosis induction / potency in HT-1080 cells, result in words (RSL3 as control)
CCOc1ccc(-c2ccc3c(C(=O)NC(C)(C)COC(=O)CCl)nn(Cc4cc(Cl)cc(Cl)c4)c3c2)cc1Cl [QW-983]	8.7	19.2 µM	2.2 µM	
CSc1ccc(-c2ccc3c(C(=O)NC(C)(C)COC(=O)CCl)nn(Cc4cc(Cl)cc(Cl)c4)c3c2)cc1Cl [QW-984]	>53	> 40 µM	0.75 µM	
CCCOc1ccc(-c2ccc3c(C(=O)NC(C)(C)COC(=O)CCl)nn(Cc4cc(Cl)cc(Cl)c4)c3c2)cc1Cl [QW-987]	>55	> 40 µM	0.72 µM	
CC(C)(COC(=O)CCl)NC(=O)c1nn(Cc2cc(Cl)cc(Cl)c2)c2cc(-c3ccc(N4CCOCC4)cc3)ccc12 [QW-988]	6.7	19.5 µM	2.9 µM	
CC(C)(COC(=O)CCl)NC(=O)c1nn(Cc2cc(Cl)cc(Cl)c2)c2cc(-c3ccc(OC(F)(F)F)c(Cl)c3)ccc12 [QW-991]	32.0	21.1 µM	0.66 µM	
COC(=O)c1ccc(-c2ccc3c(C(=O)NC(C)(C)COC(=O)CCl)nn(Cc4cc(Cl)cc(Cl)c4)c3c2)cc1Cl [QW-992]	7.5	23.3 µM	3.1 µM	
CC(C)(COC(=O)CCl)NC(=O)c1nn(Cc2cc(Cl)cc(Cl)c2)c2cc(-c3ccc(C(F)(F)F)c(Cl)c3)ccc12 [QW-995]	1.1	47.1 µM	42.3 µM	
CC(C)Oc1c(Cl)cc(-c2ccc3c(C(=O)NC(C)(C)COC(=O)CCl)nn(Cc4cc(Cl)cc(Cl)c4)c3c2)cc1Cl [QW-996]	17.8	12.8 µM	0.72 µM	
COc1c(Cl)cc(-c2ccc3c(C(=O)NC(C)(C)COC(=O)CCl)nn(Cc4cc(Cl)cc(Cl)c4)c3c2)cc1Cl [QW-998]	>114.3	> 40 µM	0.35 µM	
CC(=O)OCC(C)(C)NC(=O)c1nn(Cc2cc(Cl)cc(Cl)c2)c2cc(-c3ccc(N4CCOCC4)c(Cl)c3)ccc12 [QW-999]		> 40 µM	> 40 µM	inactive in cellular assay
CC(C)(COC(=O)C(Cl)Cl)NC(=O)c1nn(Cc2cc(Cl)cc(Cl)c2)c2cc(-c3ccc(N4CCOCC4)c(Cl)c3)ccc12 [QW-1000]		> 40 µM	> 40 µM	
COC(=O)/C=C/C(=O)OCC(C)(C)NC(=O)c1nn(Cc2cc(Cl)cc(Cl)c2)c2cc(-c3ccc(N4CCOCC4)c(Cl)c3)ccc12 [QW-1001]		> 40 µM	> 40 µM	
CC=CC(=O)OCC(C)(C)NC(=O)c1nn(Cc2cc(Cl)cc(Cl)c2)c2cc(-c3ccc(N4CCOCC4)c(Cl)c3)ccc12 [QW-1002]		> 40 µM	> 40 µM	
CC(C)(COC(=O)CBr)NC(=O)c1nn(Cc2cc(Cl)cc(Cl)c2)c2cc(-c3ccc(N4CCOCC4)c(Cl)c3)ccc12 [QW-1004]	2.3	8.9 µM	3.8 µM	
CC(C)(COC(=O)c1ccc(S(C)(=O)=O)c([N+](=O)[O-])c1)NC(=O)c1nn(Cc2cc(Cl)cc(Cl)c2)c2cc(-c3ccc(N4CCOCC4)c(Cl)c3)ccc12 [QW-1006]		> 40 µM	> 40 µM	
